Experimental data taken from patent publication US20260262643A1, “HERBICIDAL BENZOXAZINES” (FMC CORPORATION, priority 2022, published 2026).

What was measured:
barnyardgrass [1] = assay: Test C preemergence; type: in vivo, Echinochloa crusgalli; settings: 0 to 100 scale (0 no effect, 100 complete control); for Plant response rating, Barnyardgrass: Preemergence, 500 g ai/ha, visual rating after 10 days; for Barnyardgrass plant response rating: Test C, preemergence, 125 g ai/ha
Summary of the method: (§1)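 Soil-applied (pre) and foliar (post, 1–2 leaf, 2–10 cm) sprays; surfactant-containing non-phytotoxic solvent vehicle; loam/sand substrate. Readout: visual % control at 10 d, greenhouse, versus untreated.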

blackgrass [2] = assay: Test C preemergence; type: in vivo, Alopecurus myosuroides; settings: 0 to 100 scale (0 no effect, 100 complete control); for Plant response rating, Blackgrass: Preemergence, 500 g ai/ha, visual rating after 10 days; for Blackgrass plant response rating: Test C, preemergence, 125 g ai/ha
Summary of the method: as §1

corn [3] = assay: Test C preemergence; type: in vivo, Zea mays; settings: 0 to 100 scale (0 no effect, 100 complete control); for Plant response rating, Corn: Preemergence, 500 g ai/ha, visual rating after 10 days; for Corn plant response rating: Test C, preemergence, 125 g ai/ha
Summary of the method: as §1

green foxtail = assay: Test C preemergence; type: in vivo, Setaria viridis; settings: 0 to 100 scale (0 no effect, 100 complete control); for Plant response rating, Foxtail, Green: Preemergence, 500 g ai/ha, visual rating after 10 days; for Foxtail, Green plant response rating: Test C, preemergence, 125 g ai/ha
Summary of the method: as §1

kochia [4] = assay: Test C preemergence; type: in vivo, Bassia scoparia; settings: 0 to 100 scale (0 no effect, 100 complete control); for Plant response rating, Kochia: Preemergence, 500 g ai/ha, visual rating after 10 days; for Kochia plant response rating: Test C, preemergence, 125 g ai/ha
Summary of the method: as §1

oat, wild [5] = assay: Test C preemergence; type: in vivo, Avena fatua; settings: 0 to 100 scale (0 no effect, 100 complete control); for Plant response rating, Oat, Wild: Preemergence, 500 g ai/ha, visual rating after 10 days; for Oat, Wild plant response rating: Test C, preemergence, 125 g ai/ha
Summary of the method: as §1

pigweed, palmer [6] = assay: Test C preemergence; type: in vivo, Amaranthus palmeri; settings: 0 to 100 scale (0 no effect, 100 complete control); for Plant response rating, Pigweed, Palmer: Preemergence, 500 g ai/ha, visual rating after 10 days; for Pigweed, Palmer plant response rating: Test C, preemergence, 125 g ai/ha
Summary of the method: as §1

ragweed [7] = assay: Test C preemergence; type: in vivo, Ambrosia artemisiifolia; settings: 0 to 100 scale (0 no effect, 100 complete control); for Plant response rating, Ragweed: Preemergence, 500 g ai/ha, visual rating after 10 days; for Ragweed plant response rating: Test C, preemergence, 125 g ai/ha
Summary of the method: as §1

ryegrass, Italian [8] = assay: Test C preemergence; type: in vivo, Lolium multiflorum; settings: 0 to 100 scale (0 no effect, 100 complete control); for Plant response rating, Ryegrass, Italian: Preemergence, 500 g ai/ha, visual rating after 10 days; for Ryegrass, Italian plant response rating: Test C, preemergence, 125 g ai/ha
Summary of the method: as §1

soybean [9] = assay: Test C preemergence; type: in vivo, Glycine max; settings: 0 to 100 scale (0 no effect, 100 complete control); for Plant response rating, Soybean: Preemergence, 500 g ai/ha, visual rating after 10 days; for Soybean plant response rating: Test C, preemergence, 125 g ai/ha
Summary of the method: as §1

wheat [10] = assay: Test C preemergence; type: in vivo, Triticum aestivum; settings: 0 to 100 scale (0 no effect, 100 complete control); for Plant response rating, Wheat: Preemergence, 500 g ai/ha, visual rating after 10 days; for Wheat plant response rating: Test C, preemergence, 125 g ai/ha
Summary of the method: as §1

barnyardgrass [11] = assay: Test C postemergence; type: in vivo, Echinochloa crusgalli; settings: 10 days
Summary of the method: as §1

blackgrass [12] = assay: Test C postemergence; type: in vivo, Alopecurus myosuroides; settings: 10 days
Summary of the method: as §1

corn [13] = assay: Test C postemergence; type: in vivo, Zea mays; settings: 10 days
Summary of the method: as §1

kochia [14] = assay: Test C postemergence; type: in vivo, Bassia scoparia; settings: 10 days
Summary of the method: as §1

oat, wild [15] = assay: Test C postemergence; type: in vivo, Avena fatua; settings: 10 days
Summary of the method: as §1

pigweed, palmer [16] = assay: Test C postemergence; type: in vivo, Amaranthus palmeri; settings: 10 days
Summary of the method: as §1

ragweed [17] = assay: Test C postemergence; type: in vivo, Ambrosia artemisiifolia; settings: 10 days
Summary of the method: as §1

ryegrass, Italian [18] = assay: Test C postemergence; type: in vivo, Lolium multiflorum; settings: 10 days
Summary of the method: as §1

soybean [19] = assay: Test C postemergence; type: in vivo, Glycine max; settings: 10 days
Summary of the method: as §1

wheat [20] = assay: Test C postemergence; type: in vivo, Triticum aestivum; settings: 10 days
Summary of the method: as §1

galium = assay: Test C postemergence; type: in vivo, Galium aparine; settings: 10 days
Summary of the method: as §1

horseweed = assay: Test C postemergence; type: in vivo, Erigeron canadensis; settings: 10 days
Summary of the method: as §1

barnyardgrass [21] = assay: Test D flooded paddy test; type: in vivo, Echinochloa crus-galli; settings: 250 g ai/ha, applied to paddy water, visual rating after 13 to 14 days, scale 0 to 100 (0 no effect, 100 complete control)
Summary of the method: (§2)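 Post-flood water application at the 2-leaf stage; 3 cm flood depth kept constant; visual control rating 0–100 after 13–14 days greenhouse growth.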

ducksalad = assay: Test D flooded paddy test; type: in vivo, Heteranthera limosa; settings: 250 g ai/ha, applied to paddy water, visual rating after 13 to 14 days, scale 0 to 100 (0 no effect, 100 complete control)
Summary of the method: as §2

rice = assay: Test D flooded paddy test; type: in vivo, Oryza sativa; settings: 250 g ai/ha, applied to paddy water, visual rating after 13 to 14 days, scale 0 to 100 (0 no effect, 100 complete control)
Summary of the method: as §2

sedge, umbrella = assay: Test D flooded paddy test; type: in vivo, Cyperus difformis; settings: 250 g ai/ha, applied to paddy water, visual rating after 13 to 14 days, scale 0 to 100 (0 no effect, 100 complete control)
Summary of the method: as §2

[22] = 125 g ai/ha, postemergence, 0 to 100 scale, 0 no effect, 100 complete control
[23] = Postemergence, 500 g ai/ha, visual 0 to 100 scale (0 no effect, 100 complete control)

COc1ccc(-n2cnc(C(C)(C)O)n2)cc1C(=O)N1C[C@H](C)Oc2c(Cl)cccc21 [Compound 254]
Plant response rating, Barnyardgrass (barnyardgrass [1]): 100
Barnyardgrass plant response rating (barnyardgrass [1]): 70
Plant response rating, Blackgrass (blackgrass [2]): 80
Blackgrass plant response rating (blackgrass [2]): 40
Plant response rating, Corn (corn [3]): 50
Corn plant response rating (corn [3]): 50
Plant response rating, Foxtail, Green (green foxtail): 100
Foxtail, Green plant response rating (green foxtail): 100
Plant response rating, Kochia (kochia [4]): 90
Kochia plant response rating (kochia [4]): 90
Plant response rating, Oat, Wild (oat, wild [5]): 90
Oat, Wild plant response rating (oat, wild [5]): 90
Plant response rating, Pigweed, Palmer (pigweed, palmer [6]): 100
Pigweed, Palmer plant response rating (pigweed, palmer [6]): 100
Plant response rating, Ragweed (ragweed [7]): 90
Ragweed plant response rating (ragweed [7]): 80
Plant response rating, Ryegrass, Italian (ryegrass, Italian [8]): 90
Ryegrass, Italian plant response rating (ryegrass, Italian [8]): 90
Plant response rating, Soybean (soybean [9]): 100
Soybean plant response rating (soybean [9]): 100
Plant response rating, Wheat (wheat [10]): 90
Wheat plant response rating (wheat [10]): 70
Plant response rating, Barnyardgrass (barnyardgrass [11]; [22]): 50
Plant response rating, Barnyardgrass (barnyardgrass [11]; [23]): 80
Plant response rating, Blackgrass (blackgrass [12]; [22]): 80
Plant response rating, Blackgrass (blackgrass [12]; [23]): 90
Plant response rating, Corn (corn [13]; [22]): 80
Plant response rating, Corn (corn [13]; [23]): 90
Plant response rating, Kochia (kochia [14]; [22]): 80
Plant response rating, Kochia (kochia [14]; [23]): 90
Plant response rating, Oat, Wild (oat, wild [15]; [22]): 80
Plant response rating, Oat, Wild (oat, wild [15]; [23]): 90
Plant response rating, Pigweed, Palmer (pigweed, palmer [16]; [22]): 90
Plant response rating, Pigweed, Palmer (pigweed, palmer [16]; [23]): 100
Plant response rating, Ragweed (ragweed [17]; [22]): 90
Plant response rating, Ragweed (ragweed [17]; [23]): 100
Plant response rating, Ryegrass, Italian (ryegrass, Italian [18]; [22]): 70
Plant response rating, Ryegrass, Italian (ryegrass, Italian [18]; [23]): 80
Plant response rating, Soybean (soybean [19]; [22]): 100
Plant response rating, Soybean (soybean [19]; [23]): 100
Plant response rating, Wheat (wheat [20]; [22]): 50
Plant response rating, Wheat (wheat [20]; [23]): 80
Plant response rating, Galium (galium; [22]): 100
Plant response rating, Galium (galium; [23]): 100
Plant response rating, Horseweed (horseweed; [22]): 30
Plant response rating, Horseweed (horseweed; [23]): 20
Plant response rating, Barnyardgrass (Flood) (barnyardgrass [21]): 25
Plant response rating, Ducksalad (Flood) (ducksalad): 98
Plant response rating, Rice (Flood) (rice): 20
Plant response rating, Sedge, Umbrella (Flood) (sedge, umbrella): 98

COC[C@H]1CN(C(=O)c2cc(-n3cncn3)ccc2OC)c2cccc(Cl)c2O1 [Compound 234]
Plant response rating, Barnyardgrass (barnyardgrass [1]): 100
Barnyardgrass plant response rating (barnyardgrass [1]): 90
Plant response rating, Blackgrass (blackgrass [2]): 80
Blackgrass plant response rating (blackgrass [2]): 70
Plant response rating, Corn (corn [3]): 10
Corn plant response rating (corn [3]): 10
Plant response rating, Foxtail, Green (green foxtail): 100
Foxtail, Green plant response rating (green foxtail): 100
Plant response rating, Kochia (kochia [4]): 60
Kochia plant response rating (kochia [4]): 30
Plant response rating, Oat, Wild (oat, wild [5]): 70
Oat, Wild plant response rating (oat, wild [5]): 50
Plant response rating, Pigweed, Palmer (pigweed, palmer [6]): 90
Pigweed, Palmer plant response rating (pigweed, palmer [6]): 60
Plant response rating, Ragweed (ragweed [7]): 50
Ragweed plant response rating (ragweed [7]): 50
Plant response rating, Ryegrass, Italian (ryegrass, Italian [8]): 90
Ryegrass, Italian plant response rating (ryegrass, Italian [8]): 80
Plant response rating, Soybean (soybean [9]): 100
Soybean plant response rating (soybean [9]): 90
Plant response rating, Wheat (wheat [10]): 80
Wheat plant response rating (wheat [10]): 40
Plant response rating, Barnyardgrass (barnyardgrass [11]; [22]): 60
Plant response rating, Barnyardgrass (barnyardgrass [11]; [23]): 100
Plant response rating, Blackgrass (blackgrass [12]; [22]): 80
Plant response rating, Blackgrass (blackgrass [12]; [23]): 90
Plant response rating, Corn (corn [13]; [22]): 70
Plant response rating, Corn (corn [13]; [23]): 90
Plant response rating, Kochia (kochia [14]; [22]): 60
Plant response rating, Kochia (kochia [14]; [23]): 80
Plant response rating, Oat, Wild (oat, wild [15]; [22]): 50
Plant response rating, Oat, Wild (oat, wild [15]; [23]): 80
Plant response rating, Pigweed, Palmer (pigweed, palmer [16]; [22]): 30
Plant response rating, Pigweed, Palmer (pigweed, palmer [16]; [23]): 70
Plant response rating, Ragweed (ragweed [17]; [22]): 50
Plant response rating, Ragweed (ragweed [17]; [23]): 70
Plant response rating, Ryegrass, Italian (ryegrass, Italian [18]; [22]): 90
Plant response rating, Ryegrass, Italian (ryegrass, Italian [18]; [23]): 90
Plant response rating, Soybean (soybean [19]; [22]): 100
Plant response rating, Soybean (soybean [19]; [23]): 100
Plant response rating, Wheat (wheat [20]; [22]): 50
Plant response rating, Wheat (wheat [20]; [23]): 80
Plant response rating, Galium (galium; [22]): 100
Plant response rating, Galium (galium; [23]): 100
Plant response rating, Horseweed (horseweed; [22]): 20
Plant response rating, Horseweed (horseweed; [23]): 20
Plant response rating, Barnyardgrass (Flood) (barnyardgrass [21]): 75
Plant response rating, Ducksalad (Flood) (ducksalad): 100
Plant response rating, Rice (Flood) (rice): 0
Plant response rating, Sedge, Umbrella (Flood) (sedge, umbrella): 100
